In the assay the test system is human gel filtered platelets (GFP). Description: Inhibition of ADP-induced, fibrinogen-dependent blood platelet aggregation in human gel filtered platelets (GFP). It counts as cell-based. As to conditions: fibrinogen 0.5mg/ml, compounds incubated 5 minutes at 37°C, ADP 1 x 10⁻⁵M, concentration required to produce 50% inhibition of platelet aggregation, read-out: IC₅₀. On the procedure:
Inhibition of blood platelet aggregation by compounds of the invention was determined according to the following procedure. Citrated whole blood (1 part 3.8% trisodium citrate: 9 parts blood) was obtained from human volunteers, free of medication for at least 10 days prior to collection. The blood was incubated with 0.1mM aspirin and 0.05µM prostacyclin and then centrifuged at 1000g for 4 minutes (20°C). The supernatant platelet rich plasma (PRP) was further centrifuged at 1300g for 10 minutes (20°C) to sediment the platelets. The supernatant was discarded and the pellet washed with a physiological salt solution (HEPES 5mM, NaHCO₃ 12mM, NaCl 140mM, KH₂PO₄ 0.74mM, D-Glucose 5.6mM, KCl 2.82mM and BSA 20g/l, pH 7.4) to remove residual plasma. After washing, the pellet was resuspended in physiological salt solution and then applied to a sepharose CL-2B column, pre-equilibrated with physiological salt solution at room temperature. The platelets (GFP) eluted within the void volume and were diluted to approximately 300,000 platelets/µl in buffer. Purified human fibrinogen (Knight L.C. et al, 1981 Thromb. Haemostasis, 46(3), 593-596) was added to a final concentration of 0.5mg/ml together with Ca2+ and Mg2+ at 1mM and 0.5mM respectively. […] The potency of the compounds may be expressed as an IC₅₀ value, defined as the concentration of compound required to produce 50% inhibition of platelet aggregation.

Structures are written as SMILES. Structures can show the parent of a compound that is named as a salt.

Turning to `N=C(N)c1ccc(N2CCN(C3CCC(O)(CC(=O)O)CC3)CC2)c(Br)c1` (stereo not drawn) [Example 2, cis-4-[4-[4-(Aminoiminomethyl)-2-bromophenyl]-1-piperazinyl]-1-hydroxycyclohexaneacetic acid, trifluoroacetate salt], the IC50 turned out to be 945 nM.

For the molecule `N=C(N)c1ncc(N2CCN(C3CCC(O)(CC(=O)O)CC3)CC2)cn1` (stereo not drawn) [Example 3, cis-4-[4-[2-(Aminoiminomethyl)-5-pyrimidinyl]-1-piperazinyl]-1-hydroxycyclohexaneacetic acid, trifluoroacetate salt], the IC50 stood at 543 nM.

As for `N=C(N)c1ccc(C2CCN(C3CCC(O)(CC(=O)O)CC3)CC2)cc1` (stereo not drawn) [Example 4, cis-4-[4-[4-(Aminoiminomethyl)phenyl]-1-piperidinyl]-1-hydroxycyclohexaneacetic acid, trifluoroacetate salt], the IC50 came out at 13 nM.

For the molecule `N=C(N)c1ccc(N2CCN([C@H]3CC[C@@](O)(CC(=O)O)CC3)CC2)cn1` [Example 5, cis-4-[4-[2-(Aminoiminomethyl)-5-pyridinyl]-1-piperazinyl]-1-hydroxycyclohexaneacetic acid, trifluoroacetate salt], the IC50 was found to be 220 nM.

With `N=C(N)c1ccc(N2CCN(C3CCC(O)(CC(=O)O)CC3)CC2)c(-c2ccccc2)c1` (centres unmarked) [Example 6, trifluoroacetate salt], the IC50 is 1550 nM.

The record behind these values is patent publication EP0537980A1, “Cyclohexaneacetic acid derivatives as inhibitors of fibrinogen-dependent blood platelet aggregation” (GLAXO GROUP LIMITED, priority 1991, dated 1993).
